Reference: ChEMBL document CHEMBL4507300 (2021)

Tests used:
[1] = biological target: Platelet-derived growth factor receptor beta (Homo sapiens) (UniProt P09619); conditions: Compound concentration 1000.0 nM
[2] = biological target: Serine/threonine-protein kinase haspin (Homo sapiens) (UniProt Q8TF76); conditions: Compound concentration 1000.0 nM
[3] = biological target: Serine/threonine-protein kinase BRSK1 (Homo sapiens) (UniProt Q8TDC3); conditions: Compound concentration 1000.0 nM
[4] = biological target: Ephrin type-B receptor 2 (Homo sapiens) (UniProt P29323); conditions: Compound concentration 1000.0 nM
[5] = biological target: Cyclin-dependent kinase 11B (Homo sapiens) (UniProt P21127); conditions: Compound concentration 1000.0 nM
[6] = biological target: Histamine H4 receptor (Homo sapiens) (UniProt Q9H3N8); conditions: Compound concentration 10.0 uM
[7] = biological target: Tyrosine-protein kinase JAK1 (Homo sapiens) (UniProt P23458); conditions: Compound concentration 1000.0 nM
[8] = biological target: Mitogen-activated protein kinase kinase kinase kinase 1 (Homo sapiens) (UniProt Q92918); conditions: Compound concentration 1000.0 nM
[9] = biological target: Mitogen-activated protein kinase kinase kinase 14 (Homo sapiens) (UniProt Q99558); conditions: Compound concentration 1000.0 nM

Sequence of Ephrin type-B receptor 2 (Homo sapiens) (P29323 whole entry): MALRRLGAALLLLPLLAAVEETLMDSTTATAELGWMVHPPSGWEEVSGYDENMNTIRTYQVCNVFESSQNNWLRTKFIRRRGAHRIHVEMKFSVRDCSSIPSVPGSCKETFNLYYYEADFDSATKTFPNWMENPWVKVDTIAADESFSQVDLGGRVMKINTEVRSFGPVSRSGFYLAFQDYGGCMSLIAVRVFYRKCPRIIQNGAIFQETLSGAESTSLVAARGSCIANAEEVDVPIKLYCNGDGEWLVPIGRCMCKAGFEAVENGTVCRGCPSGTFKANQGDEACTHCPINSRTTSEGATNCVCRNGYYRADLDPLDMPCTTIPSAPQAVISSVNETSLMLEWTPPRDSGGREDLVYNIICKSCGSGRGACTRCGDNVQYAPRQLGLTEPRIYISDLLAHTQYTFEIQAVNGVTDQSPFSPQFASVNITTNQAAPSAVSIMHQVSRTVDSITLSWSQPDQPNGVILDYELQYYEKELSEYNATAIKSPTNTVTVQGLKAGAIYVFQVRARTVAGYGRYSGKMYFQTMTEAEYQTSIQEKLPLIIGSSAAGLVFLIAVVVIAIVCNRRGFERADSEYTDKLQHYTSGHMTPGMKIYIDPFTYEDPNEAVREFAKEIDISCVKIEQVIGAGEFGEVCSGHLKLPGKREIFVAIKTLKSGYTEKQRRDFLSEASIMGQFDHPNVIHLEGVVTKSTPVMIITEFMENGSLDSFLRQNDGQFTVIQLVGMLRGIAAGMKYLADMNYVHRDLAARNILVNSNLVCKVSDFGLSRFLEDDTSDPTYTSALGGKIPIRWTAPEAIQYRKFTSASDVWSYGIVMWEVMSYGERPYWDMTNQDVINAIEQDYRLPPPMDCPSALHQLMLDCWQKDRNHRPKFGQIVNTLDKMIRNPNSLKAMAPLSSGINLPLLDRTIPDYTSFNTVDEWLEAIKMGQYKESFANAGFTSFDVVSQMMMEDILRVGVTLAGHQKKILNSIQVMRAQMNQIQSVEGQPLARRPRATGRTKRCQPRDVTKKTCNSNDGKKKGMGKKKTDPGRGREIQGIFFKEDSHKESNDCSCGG
Sequence of Histamine H4 receptor (Homo sapiens) (Q9H3N8 whole entry): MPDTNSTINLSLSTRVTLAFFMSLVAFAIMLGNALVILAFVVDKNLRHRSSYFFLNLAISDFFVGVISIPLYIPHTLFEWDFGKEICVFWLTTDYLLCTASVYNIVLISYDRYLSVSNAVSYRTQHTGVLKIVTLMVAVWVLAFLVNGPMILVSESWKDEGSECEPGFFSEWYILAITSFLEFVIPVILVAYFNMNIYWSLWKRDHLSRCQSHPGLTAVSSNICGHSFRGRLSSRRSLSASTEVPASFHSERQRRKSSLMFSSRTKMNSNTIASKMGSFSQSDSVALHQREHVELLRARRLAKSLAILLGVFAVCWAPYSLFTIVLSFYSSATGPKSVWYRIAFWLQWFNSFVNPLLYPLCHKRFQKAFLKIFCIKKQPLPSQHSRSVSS
Sequence of Serine/threonine-protein kinase haspin (Homo sapiens) (Q8TF76 whole entry): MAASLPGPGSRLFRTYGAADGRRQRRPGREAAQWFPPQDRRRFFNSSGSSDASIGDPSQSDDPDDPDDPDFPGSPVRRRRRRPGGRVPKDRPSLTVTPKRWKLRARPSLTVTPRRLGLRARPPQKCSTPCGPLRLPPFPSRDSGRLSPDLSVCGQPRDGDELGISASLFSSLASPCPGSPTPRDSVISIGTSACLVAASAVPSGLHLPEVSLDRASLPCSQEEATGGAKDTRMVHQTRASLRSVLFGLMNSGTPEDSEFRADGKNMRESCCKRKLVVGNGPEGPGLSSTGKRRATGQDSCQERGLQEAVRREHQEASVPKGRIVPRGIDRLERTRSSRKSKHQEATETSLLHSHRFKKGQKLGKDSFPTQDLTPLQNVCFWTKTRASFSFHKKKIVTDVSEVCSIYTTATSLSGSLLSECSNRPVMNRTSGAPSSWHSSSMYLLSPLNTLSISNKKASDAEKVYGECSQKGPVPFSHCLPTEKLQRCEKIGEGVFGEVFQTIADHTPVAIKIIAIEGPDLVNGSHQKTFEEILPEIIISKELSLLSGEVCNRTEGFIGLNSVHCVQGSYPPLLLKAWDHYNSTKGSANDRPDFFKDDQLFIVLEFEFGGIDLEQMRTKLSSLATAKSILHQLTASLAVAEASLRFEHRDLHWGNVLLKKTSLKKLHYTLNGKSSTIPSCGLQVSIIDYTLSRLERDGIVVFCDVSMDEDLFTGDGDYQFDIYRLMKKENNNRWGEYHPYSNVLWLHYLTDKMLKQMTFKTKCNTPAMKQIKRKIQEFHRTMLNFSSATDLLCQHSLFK
Sequence of Platelet-derived growth factor receptor beta (Homo sapiens) (P09619 whole entry): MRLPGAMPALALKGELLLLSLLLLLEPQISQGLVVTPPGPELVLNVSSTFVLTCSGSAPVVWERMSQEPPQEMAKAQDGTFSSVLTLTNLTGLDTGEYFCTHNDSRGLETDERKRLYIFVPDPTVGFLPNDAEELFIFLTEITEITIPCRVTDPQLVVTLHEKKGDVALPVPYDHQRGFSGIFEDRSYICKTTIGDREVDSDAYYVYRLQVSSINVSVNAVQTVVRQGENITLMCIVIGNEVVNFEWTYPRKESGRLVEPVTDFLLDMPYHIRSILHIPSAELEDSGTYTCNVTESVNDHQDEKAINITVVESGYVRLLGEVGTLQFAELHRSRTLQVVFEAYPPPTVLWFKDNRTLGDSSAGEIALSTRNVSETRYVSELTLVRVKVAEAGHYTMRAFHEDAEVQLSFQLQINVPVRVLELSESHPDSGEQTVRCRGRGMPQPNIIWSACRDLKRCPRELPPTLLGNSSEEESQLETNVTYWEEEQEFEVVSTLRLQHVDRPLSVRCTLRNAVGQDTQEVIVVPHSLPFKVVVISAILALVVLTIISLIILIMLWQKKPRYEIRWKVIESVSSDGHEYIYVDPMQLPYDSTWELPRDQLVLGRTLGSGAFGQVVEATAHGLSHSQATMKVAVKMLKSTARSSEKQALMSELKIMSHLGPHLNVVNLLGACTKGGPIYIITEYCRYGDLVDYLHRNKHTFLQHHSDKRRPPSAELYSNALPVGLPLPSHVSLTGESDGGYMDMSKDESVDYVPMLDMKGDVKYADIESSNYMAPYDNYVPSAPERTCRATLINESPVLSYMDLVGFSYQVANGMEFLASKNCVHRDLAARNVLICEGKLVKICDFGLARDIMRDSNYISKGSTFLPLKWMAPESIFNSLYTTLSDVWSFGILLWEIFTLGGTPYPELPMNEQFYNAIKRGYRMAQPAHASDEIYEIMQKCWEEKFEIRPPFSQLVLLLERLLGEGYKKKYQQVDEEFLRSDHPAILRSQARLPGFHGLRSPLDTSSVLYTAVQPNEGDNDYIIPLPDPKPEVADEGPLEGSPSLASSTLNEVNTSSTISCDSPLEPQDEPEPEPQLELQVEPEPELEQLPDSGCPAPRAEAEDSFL
Sequence of Cyclin-dependent kinase 11B (Homo sapiens) (P21127 whole entry): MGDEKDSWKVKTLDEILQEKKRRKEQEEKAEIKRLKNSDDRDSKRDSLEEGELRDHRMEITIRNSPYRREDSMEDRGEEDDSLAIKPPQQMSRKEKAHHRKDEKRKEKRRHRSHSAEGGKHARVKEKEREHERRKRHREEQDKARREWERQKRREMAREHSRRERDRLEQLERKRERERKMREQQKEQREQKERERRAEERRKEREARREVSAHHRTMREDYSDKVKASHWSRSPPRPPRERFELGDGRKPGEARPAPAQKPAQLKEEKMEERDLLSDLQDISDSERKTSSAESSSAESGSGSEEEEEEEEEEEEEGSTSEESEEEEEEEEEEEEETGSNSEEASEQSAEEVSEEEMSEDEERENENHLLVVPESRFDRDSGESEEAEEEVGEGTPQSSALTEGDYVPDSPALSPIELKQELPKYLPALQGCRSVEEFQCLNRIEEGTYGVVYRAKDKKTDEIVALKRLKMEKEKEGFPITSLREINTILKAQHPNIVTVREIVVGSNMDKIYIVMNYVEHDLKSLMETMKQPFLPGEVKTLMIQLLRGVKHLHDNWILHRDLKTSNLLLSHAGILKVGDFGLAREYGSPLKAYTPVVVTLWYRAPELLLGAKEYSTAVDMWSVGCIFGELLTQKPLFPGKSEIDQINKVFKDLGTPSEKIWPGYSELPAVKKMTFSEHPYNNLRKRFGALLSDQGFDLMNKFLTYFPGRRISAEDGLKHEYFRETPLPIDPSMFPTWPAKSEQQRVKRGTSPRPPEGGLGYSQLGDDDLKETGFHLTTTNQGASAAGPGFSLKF
Sequence of Mitogen-activated protein kinase kinase kinase kinase 1 (Homo sapiens) (Q92918 whole entry, looked up): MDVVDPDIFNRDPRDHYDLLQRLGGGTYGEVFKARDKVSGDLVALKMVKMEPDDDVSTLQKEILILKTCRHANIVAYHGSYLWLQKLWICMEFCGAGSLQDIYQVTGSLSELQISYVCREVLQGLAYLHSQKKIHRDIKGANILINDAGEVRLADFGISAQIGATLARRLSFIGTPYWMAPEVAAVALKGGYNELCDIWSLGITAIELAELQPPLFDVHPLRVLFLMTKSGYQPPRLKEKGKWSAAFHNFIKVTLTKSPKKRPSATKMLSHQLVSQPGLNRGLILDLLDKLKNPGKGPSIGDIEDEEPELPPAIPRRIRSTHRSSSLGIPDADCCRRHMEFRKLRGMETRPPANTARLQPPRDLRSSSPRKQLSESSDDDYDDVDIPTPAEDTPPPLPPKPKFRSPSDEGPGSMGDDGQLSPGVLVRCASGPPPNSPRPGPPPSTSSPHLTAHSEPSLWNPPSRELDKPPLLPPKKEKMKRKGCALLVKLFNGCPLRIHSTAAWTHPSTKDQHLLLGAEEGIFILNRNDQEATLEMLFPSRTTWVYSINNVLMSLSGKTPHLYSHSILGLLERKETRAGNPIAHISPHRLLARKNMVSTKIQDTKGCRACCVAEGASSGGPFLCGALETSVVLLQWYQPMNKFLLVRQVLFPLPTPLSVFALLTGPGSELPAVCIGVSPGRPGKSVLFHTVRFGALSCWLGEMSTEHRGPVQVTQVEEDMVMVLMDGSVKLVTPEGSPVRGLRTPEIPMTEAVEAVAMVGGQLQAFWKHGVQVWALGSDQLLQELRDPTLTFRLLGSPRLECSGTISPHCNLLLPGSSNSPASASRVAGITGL

COc1cccc(CNC(=O)c2nc3scc(COCc4ccc(C(=O)O)cc4)c3c(=O)[nH]2)c1 [T-26c]
inactive: residual activity [1] 99% | residual activity [2] 92.5% | residual activity [3] 100% | residual activity [4] 95.7% | residual activity [5] 85.4% | inhibition [6] 17.6% | residual activity [7] 76% | residual activity [8] 100% | residual activity [9] 100%
